Reference: PMC9851200, “Multiparameter phenotypic screening for endogenous TFEB and TFE3 translocation identifies novel chemical series modulating lysosome function” (Autophagy, 2022)

Assays:
Type in all cases: binding
[1] = target: kinases (KINOMEscan panel) (Homo sapiens, UniProt P42684); conditions: ABL2; NEW KINOMEscan
[2] = target: kinases (KINOMEscan panel) (Homo sapiens, UniProt P29317); conditions: EPHA2; NEW KINOMEscan
[3] = target: T1, kinases (KINOMEscan panel) (Homo sapiens, UniProt O14936); conditions: kinase CASK; NEW KINOMEscan
T1 sequence (O14936 1-926): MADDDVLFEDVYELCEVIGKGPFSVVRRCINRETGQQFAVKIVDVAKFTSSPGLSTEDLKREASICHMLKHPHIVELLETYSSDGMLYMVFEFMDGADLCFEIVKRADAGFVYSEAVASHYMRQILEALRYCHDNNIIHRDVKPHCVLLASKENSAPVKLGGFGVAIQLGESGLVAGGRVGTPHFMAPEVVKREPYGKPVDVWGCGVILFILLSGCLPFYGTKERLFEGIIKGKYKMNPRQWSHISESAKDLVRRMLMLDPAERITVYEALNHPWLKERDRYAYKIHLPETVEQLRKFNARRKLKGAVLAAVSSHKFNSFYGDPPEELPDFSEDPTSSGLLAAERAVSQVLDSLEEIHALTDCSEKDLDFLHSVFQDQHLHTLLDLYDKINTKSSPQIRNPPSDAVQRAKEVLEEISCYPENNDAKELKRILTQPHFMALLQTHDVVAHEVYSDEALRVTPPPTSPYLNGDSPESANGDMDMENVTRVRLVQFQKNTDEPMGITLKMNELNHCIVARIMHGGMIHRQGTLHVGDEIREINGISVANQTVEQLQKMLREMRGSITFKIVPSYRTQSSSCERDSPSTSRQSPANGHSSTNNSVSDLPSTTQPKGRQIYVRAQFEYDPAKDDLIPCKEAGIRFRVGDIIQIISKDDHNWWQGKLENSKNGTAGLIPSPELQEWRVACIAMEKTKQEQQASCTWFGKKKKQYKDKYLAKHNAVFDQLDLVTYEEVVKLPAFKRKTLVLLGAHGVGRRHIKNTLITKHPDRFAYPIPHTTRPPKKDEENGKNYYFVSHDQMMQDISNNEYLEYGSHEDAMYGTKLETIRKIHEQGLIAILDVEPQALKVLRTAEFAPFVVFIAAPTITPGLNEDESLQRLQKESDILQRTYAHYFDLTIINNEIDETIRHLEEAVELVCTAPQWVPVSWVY

[4] = target: kinases (KINOMEscan panel) (Plasmodium falciparum, UniProt P61075); conditions: PFPK5(P.falciparum); NEW KINOMEscan
[5] = target: kinases (KINOMEscan panel) (Homo sapiens, UniProt P32298); conditions: kinase GRK4; NEW KINOMEscan
Sequence of kinases (KINOMEscan panel) (Homo sapiens, UniProt P32298) (P32298 whole entry): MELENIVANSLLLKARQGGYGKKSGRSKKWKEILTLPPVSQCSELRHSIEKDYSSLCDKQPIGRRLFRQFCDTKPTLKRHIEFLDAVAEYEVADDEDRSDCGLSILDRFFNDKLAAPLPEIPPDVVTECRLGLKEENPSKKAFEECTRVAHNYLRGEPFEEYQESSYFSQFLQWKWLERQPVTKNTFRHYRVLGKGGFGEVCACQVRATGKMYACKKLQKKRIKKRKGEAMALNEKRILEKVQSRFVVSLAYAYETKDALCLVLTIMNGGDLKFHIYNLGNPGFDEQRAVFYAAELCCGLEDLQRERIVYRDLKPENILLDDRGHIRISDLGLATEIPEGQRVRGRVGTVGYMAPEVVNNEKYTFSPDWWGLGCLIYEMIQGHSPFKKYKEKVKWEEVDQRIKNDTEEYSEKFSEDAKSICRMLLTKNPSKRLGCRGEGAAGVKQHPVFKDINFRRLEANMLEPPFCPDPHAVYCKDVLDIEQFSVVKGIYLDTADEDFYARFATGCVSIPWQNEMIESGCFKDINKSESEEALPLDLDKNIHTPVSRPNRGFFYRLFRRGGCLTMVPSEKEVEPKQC

[6] = target: kinases (KINOMEscan panel) (Homo sapiens, UniProt Q99558); conditions: kinase MAP3K14; NEW KINOMEscan
[7] = target: kinases (KINOMEscan panel) (Homo sapiens, UniProt P07949); conditions: kinase RET; NEW KINOMEscan
[8] = target: T2, kinases (KINOMEscan panel) (Homo sapiens, UniProt Q9UPZ9); conditions: CILK1; NEW KINOMEscan
T2 sequence (Q9UPZ9 1-632): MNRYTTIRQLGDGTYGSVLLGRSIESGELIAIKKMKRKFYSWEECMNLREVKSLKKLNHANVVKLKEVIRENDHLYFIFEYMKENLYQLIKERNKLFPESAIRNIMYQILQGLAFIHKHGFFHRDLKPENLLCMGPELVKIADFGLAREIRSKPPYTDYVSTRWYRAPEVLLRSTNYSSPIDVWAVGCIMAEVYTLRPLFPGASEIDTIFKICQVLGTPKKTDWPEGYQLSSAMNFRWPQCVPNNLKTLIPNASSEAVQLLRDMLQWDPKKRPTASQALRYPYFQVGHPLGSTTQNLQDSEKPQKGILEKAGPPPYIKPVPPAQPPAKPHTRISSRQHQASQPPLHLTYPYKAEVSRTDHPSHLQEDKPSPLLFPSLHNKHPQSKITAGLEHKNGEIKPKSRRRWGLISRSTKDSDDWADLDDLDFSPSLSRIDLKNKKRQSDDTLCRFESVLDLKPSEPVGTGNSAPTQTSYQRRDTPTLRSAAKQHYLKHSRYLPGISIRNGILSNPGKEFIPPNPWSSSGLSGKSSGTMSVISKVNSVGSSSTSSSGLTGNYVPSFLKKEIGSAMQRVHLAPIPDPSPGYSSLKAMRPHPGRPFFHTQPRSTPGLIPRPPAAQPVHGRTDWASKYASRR

[9] = target: kinases (KINOMEscan panel) (Homo sapiens, UniProt Q15569); conditions: TESK1; NEW KINOMEscan
Sequence of kinases (KINOMEscan panel) (Homo sapiens, UniProt Q15569) (Q15569 whole entry): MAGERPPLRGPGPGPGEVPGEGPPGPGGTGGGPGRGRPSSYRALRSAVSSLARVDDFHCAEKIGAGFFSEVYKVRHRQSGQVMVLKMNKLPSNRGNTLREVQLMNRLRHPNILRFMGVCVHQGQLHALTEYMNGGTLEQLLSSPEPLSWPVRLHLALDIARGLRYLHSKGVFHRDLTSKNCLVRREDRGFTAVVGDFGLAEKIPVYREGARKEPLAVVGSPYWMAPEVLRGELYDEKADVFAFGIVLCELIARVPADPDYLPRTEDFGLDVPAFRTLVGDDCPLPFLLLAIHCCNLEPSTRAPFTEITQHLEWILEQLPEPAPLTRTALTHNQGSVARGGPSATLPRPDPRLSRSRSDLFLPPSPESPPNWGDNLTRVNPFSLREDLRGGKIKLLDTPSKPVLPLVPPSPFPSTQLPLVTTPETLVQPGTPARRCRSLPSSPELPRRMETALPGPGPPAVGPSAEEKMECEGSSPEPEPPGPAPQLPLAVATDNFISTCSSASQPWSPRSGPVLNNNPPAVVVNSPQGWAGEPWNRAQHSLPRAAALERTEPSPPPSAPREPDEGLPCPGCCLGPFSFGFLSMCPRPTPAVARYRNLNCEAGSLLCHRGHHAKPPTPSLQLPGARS

[10] = target: kinases (KINOMEscan panel) (Homo sapiens, UniProt Q13233); conditions: MAP3K1; NEW KINOMEscan
Sequence of kinases (KINOMEscan panel) (Homo sapiens, UniProt Q13233) (Q13233 whole entry): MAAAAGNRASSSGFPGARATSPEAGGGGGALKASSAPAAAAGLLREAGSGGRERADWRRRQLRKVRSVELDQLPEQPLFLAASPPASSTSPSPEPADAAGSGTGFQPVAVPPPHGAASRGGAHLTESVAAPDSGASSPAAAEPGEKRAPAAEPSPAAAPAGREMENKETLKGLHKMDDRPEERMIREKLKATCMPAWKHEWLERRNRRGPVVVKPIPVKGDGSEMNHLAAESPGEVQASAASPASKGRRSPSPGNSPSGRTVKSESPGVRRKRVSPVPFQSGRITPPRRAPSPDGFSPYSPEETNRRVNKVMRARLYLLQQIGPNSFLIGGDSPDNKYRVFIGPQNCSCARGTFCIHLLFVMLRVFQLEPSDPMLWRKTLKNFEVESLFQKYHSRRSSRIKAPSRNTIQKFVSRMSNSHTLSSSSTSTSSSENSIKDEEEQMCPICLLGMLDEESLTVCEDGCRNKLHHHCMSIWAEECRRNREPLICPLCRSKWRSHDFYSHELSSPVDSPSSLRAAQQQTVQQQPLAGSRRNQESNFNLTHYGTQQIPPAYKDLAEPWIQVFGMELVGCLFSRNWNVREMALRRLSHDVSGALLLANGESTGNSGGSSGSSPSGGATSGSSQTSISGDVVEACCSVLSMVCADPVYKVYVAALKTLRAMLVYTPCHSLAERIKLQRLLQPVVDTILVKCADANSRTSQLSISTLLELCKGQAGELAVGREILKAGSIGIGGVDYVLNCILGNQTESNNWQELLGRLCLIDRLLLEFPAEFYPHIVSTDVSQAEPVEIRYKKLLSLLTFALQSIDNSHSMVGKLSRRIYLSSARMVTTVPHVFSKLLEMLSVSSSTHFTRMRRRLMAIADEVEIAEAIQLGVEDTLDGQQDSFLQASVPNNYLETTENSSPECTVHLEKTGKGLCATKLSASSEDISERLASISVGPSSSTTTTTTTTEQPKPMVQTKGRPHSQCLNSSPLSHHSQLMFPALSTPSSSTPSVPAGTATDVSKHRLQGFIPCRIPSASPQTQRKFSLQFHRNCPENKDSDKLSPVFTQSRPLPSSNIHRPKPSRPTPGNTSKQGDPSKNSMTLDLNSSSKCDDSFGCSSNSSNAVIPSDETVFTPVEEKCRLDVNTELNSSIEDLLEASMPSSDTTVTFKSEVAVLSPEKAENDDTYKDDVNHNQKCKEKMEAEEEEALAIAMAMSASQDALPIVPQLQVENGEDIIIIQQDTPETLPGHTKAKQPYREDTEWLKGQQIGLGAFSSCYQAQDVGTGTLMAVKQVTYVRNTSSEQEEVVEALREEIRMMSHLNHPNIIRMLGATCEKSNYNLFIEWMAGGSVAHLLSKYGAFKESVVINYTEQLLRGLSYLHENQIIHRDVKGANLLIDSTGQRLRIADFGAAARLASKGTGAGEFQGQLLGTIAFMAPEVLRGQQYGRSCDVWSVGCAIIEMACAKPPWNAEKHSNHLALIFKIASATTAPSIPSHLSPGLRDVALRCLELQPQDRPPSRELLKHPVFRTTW

[11] = target: kinases (KINOMEscan panel) (Homo sapiens, UniProt P08922); conditions: kinase ROS1; NEW KINOMEscan
Sequence of kinases (KINOMEscan panel) (Homo sapiens, UniProt P08922) (P08922 28-2347): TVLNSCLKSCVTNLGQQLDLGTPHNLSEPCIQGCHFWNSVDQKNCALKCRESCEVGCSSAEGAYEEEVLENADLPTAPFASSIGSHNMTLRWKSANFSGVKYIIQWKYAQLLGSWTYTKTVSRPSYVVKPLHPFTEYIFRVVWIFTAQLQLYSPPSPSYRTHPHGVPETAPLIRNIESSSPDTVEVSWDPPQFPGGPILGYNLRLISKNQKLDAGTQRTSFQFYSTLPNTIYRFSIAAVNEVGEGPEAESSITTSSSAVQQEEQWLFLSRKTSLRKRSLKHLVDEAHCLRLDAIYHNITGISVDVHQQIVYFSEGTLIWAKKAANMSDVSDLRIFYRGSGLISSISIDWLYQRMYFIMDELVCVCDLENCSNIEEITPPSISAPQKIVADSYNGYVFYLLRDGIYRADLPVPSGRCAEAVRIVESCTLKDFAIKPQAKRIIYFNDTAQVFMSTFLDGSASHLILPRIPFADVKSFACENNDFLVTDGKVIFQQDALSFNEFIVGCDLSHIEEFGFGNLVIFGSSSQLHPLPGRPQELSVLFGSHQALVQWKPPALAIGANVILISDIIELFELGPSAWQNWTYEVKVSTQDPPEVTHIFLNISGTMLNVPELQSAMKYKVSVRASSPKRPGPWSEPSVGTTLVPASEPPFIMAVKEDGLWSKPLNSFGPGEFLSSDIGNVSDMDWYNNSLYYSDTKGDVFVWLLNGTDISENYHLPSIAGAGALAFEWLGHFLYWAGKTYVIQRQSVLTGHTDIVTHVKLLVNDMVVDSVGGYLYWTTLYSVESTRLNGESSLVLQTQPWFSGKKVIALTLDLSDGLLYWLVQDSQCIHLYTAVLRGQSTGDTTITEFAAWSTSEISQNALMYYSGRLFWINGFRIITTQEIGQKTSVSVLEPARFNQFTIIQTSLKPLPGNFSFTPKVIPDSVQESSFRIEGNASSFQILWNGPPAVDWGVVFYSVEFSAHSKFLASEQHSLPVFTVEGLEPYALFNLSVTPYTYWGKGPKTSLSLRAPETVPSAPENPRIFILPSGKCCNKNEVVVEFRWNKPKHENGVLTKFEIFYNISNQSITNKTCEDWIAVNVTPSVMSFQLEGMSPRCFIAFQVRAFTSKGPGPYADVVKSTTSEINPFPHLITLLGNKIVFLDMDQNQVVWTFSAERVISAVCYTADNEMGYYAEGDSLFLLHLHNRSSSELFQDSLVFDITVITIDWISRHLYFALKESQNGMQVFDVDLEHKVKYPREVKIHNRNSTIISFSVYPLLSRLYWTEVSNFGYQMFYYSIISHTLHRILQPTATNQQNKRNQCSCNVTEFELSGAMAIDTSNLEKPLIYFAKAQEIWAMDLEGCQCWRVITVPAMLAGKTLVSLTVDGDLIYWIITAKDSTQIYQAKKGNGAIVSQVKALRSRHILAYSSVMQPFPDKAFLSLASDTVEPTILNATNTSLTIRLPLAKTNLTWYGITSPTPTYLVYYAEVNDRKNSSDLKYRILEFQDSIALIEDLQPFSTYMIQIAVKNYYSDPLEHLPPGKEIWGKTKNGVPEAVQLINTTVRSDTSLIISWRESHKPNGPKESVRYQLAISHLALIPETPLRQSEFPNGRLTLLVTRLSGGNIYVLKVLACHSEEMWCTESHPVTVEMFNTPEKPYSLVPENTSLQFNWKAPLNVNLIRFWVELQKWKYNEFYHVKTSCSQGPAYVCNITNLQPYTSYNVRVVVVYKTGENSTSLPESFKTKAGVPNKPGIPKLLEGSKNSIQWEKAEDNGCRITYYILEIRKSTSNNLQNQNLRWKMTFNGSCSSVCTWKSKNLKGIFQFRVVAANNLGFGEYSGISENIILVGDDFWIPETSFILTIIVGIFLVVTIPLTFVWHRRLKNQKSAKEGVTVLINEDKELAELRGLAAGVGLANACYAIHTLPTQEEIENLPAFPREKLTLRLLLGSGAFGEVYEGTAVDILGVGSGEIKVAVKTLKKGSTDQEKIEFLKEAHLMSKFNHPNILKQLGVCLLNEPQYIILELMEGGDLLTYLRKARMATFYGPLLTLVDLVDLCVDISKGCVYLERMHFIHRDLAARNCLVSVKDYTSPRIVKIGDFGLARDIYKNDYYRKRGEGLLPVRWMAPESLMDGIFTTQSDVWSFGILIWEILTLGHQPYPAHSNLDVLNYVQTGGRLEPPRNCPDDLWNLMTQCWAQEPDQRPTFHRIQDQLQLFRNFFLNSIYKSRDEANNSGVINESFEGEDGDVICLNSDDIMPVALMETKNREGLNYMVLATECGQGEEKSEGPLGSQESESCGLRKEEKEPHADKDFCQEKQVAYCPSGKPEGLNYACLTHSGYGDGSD

[12] = target: T3, kinases (KINOMEscan panel) (Homo sapiens, UniProt Q9HBY8); conditions: NEW KINOMEscan
T3 sequence (Q9HBY8 1-367): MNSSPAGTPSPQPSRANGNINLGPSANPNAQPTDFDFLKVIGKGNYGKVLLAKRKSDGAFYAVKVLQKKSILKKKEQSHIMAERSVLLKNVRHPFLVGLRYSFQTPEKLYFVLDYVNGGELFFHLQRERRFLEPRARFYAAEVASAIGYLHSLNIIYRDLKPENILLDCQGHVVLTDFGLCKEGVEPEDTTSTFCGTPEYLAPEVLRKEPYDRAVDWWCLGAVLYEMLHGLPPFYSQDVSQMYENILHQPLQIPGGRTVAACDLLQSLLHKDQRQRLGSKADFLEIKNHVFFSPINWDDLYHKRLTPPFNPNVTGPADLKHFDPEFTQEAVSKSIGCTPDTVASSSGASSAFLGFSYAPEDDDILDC

[13] = target: kinases (KINOMEscan panel) (Homo sapiens, UniProt P30291); conditions: WEE1; NEW KINOMEscan

| Structure (SMILES) | KINOMEscan ABL2 [1] | KINOMEscan EPHA2 [2] | KINOMEscan CASK [3] | KINOMEscan PFPK5(P.falciparum) [4] | KINOMEscan GRK4 [5] | KINOMEscan MAP3K14 [6] | KINOMEscan RET [7] | KINOMEscan CILK1 [8] | KINOMEscan TESK1 [9] | KINOMEscan MAP3K1 [10] | KINOMEscan ROS1 [11] | KINOMEscan SGK2 [12] | KINOMEscan WEE1 [13] |
| --- | --- | --- | --- | --- | --- | --- | --- | --- | --- | --- | --- | --- | --- |
| Cc1cccc(-c2nc(Nc3ccc4nn(C)cc4c3)c3ccccc3n2)n1 [NK167] | 0 | 0 | 0 | 0 | 0 | 0 | 0 | 0 | 0 | 0 | 0 | 0 | 0 |
| Cc1cccc(-c2nc(N(C)c3ccc4ncsc4c3)c3ccccc3n2)n1 [NK-161] | 8 | 2 | 0 | 0 | 0 | 2 | 0 | 0 | 0 | 0 | 0 | 15 | 0 |
